Values joined by “and” are separate entries in the source; they are usually repeats but may differ in a detail not shown here. Equal values may be shown once. Toxic doses and inconclusive results are not listed.

The test system of the experiment is L1210 leukemia ip in BDF1 mice, survival T/C. As to the kind of experiment: NCI In Vivo Anticancer Drug Screen. Data for tumor model L1210 Leukemia (intraperitoneal) in B6D2F1 (BDF1) mice. The conditions noted are these: endpoint: mean survival time, higher = longer survival. A digest of the protocol: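 Value reflects the ratio of survival in compound-treated mice to survival in vehicle-treated controls, with both groups carrying the same transplanted tumor.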

Where [1] appears, read: dose: 100.0 mg/kg/injection, schedule: Q01DX009 (ip), vehicle: Klucel (hydroxypropylcellulose) (HPC).
Setting [2] is: dose: 200.0 mg/kg/injection, schedule: Q01DX009 (ip), vehicle: Klucel (hydroxypropylcellulose) (HPC).
Where [3] appears, read: dose: 400.0 mg/kg/injection, schedule: Q01DX009 (ip), vehicle: Klucel (hydroxypropylcellulose) (HPC).
[4] abbreviates: dose: 100.0 mg/kg/injection, schedule: Q01DX009 (ip), vehicle: saline with Tween-80.
The mark [5] stands for this setting: dose: 200.0 mg/kg/injection, schedule: Q01DX009 (ip), vehicle: saline with Tween-80.
Where [6] appears, read: dose: 100.0 mg/kg/injection, schedule: Q04DX002 (ip), vehicle: Klucel (hydroxypropylcellulose) (HPC).
Setting [7] is: dose: 100.0 mg/kg/injection, schedule: Q04DX003 (ip), vehicle: Klucel (hydroxypropylcellulose) (HPC).
Where [8] appears, read: dose: 200.0 mg/kg/injection, schedule: Q04DX002 (ip), vehicle: Klucel (hydroxypropylcellulose) (HPC).
Where [9] appears, read: dose: 200.0 mg/kg/injection, schedule: Q04DX003 (ip), vehicle: Klucel (hydroxypropylcellulose) (HPC).
The mark [10] stands for this setting: dose: 400.0 mg/kg/injection, schedule: Q04DX002 (ip), vehicle: Klucel (hydroxypropylcellulose) (HPC).
Where [11] appears, read: dose: 400.0 mg/kg/injection, schedule: Q04DX003 (ip), vehicle: Klucel (hydroxypropylcellulose) (HPC).
[12] abbreviates: dose: 100.0 mg/kg/injection, schedule: Q04DX003 (ip), vehicle: saline with Tween-80.
The mark [13] stands for this setting: dose: 200.0 mg/kg/injection, schedule: Q04DX003 (ip), vehicle: saline with Tween-80.
Setting [14] is: dose: 400.0 mg/kg/injection, schedule: Q04DX003 (ip), vehicle: saline with Tween-80.

On to `O=C(c1ccccc1)C1OC1(CBr)c1ccccc1` (stereo unspecified), for which the T/C by setting is: (dose: 6.25 mg/kg/injection, schedule: Q01DX009 (ip), vehicle: alcohol) 96 % of control; (dose: 12.5 mg/kg/injection, schedule: Q01DX009 (ip), vehicle: alcohol) 95 % of control; (dose: 25.0 mg/kg/injection, schedule: Q01DX009 (ip), vehicle: alcohol) 98 % of control; (dose: 100.0 mg/kg/injection, schedule: Q01DX001 (ip), vehicle: Klucel (hydroxypropylcellulose) (HPC)) 100 % of control; under setting [1], 106 % of control; (dose: 200.0 mg/kg/injection, schedule: Q01DX001 (ip), vehicle: Klucel (hydroxypropylcellulose) (HPC)) 105 % of control. The T/C under setting [2] is 98 % of control; the T/C (dose: 400.0 mg/kg/injection, schedule: Q01DX001 (ip), vehicle: Klucel (hydroxypropylcellulose) (HPC)) is 106 % of control; the T/C under setting [3] is 96 % of control.
Turning to `CCOC(=O)CN1C(=O)CN=C(c2ccccn2)c2cc(Cl)ccc21`, the T/C runs as follows: under setting [4], 91 % of control; under setting [5], 93 % of control.
As for `Cc1cc(C)c(NC(=O)N(CCCl)N=O)c(C)c1`, the T/C runs as follows: (dose: 11.25 mg/kg/injection, schedule: Q01DX001 (ip), vehicle: other) 155 % of control; (dose: 15.0 mg/kg/injection, schedule: Q01DX001 (ip), vehicle: other) 150 % of control; (dose: 16.0 mg/kg/injection, schedule: Q01DX001 (ip), vehicle: other) 174 % of control; (dose: 20.0 mg/kg/injection, schedule: Q01DX001 (ip), vehicle: other) 203 % of control; (dose: 22.5 mg/kg/injection, schedule: Q01DX001 (ip), vehicle: other) 234 % of control; (dose: 25.0 mg/kg/injection, schedule: Q01DX001 (ip), vehicle: other) 166 % of control. Moreover, the T/C is, setting by setting: (dose: 30.0 mg/kg/injection, schedule: Q01DX001 (ip), vehicle: other) 191 % of control; (dose: 31.0 mg/kg/injection, schedule: Q01DX001 (ip), vehicle: other) 165 % of control; (dose: 38.0 mg/kg/injection, schedule: Q01DX001 (ip), vehicle: other) 201 % of control; (dose: 45.0 mg/kg/injection, schedule: Q01DX001 (ip), vehicle: other) 252 % of control and 322 % of control; (dose: 57.0 mg/kg/injection, schedule: Q01DX001 (ip), vehicle: other) 262 % of control; (dose: 62.0 mg/kg/injection, schedule: Q01DX001 (ip), vehicle: other) 217 % of control. In addition, the T/C (dose: 86.0 mg/kg/injection, schedule: Q01DX001 (ip), vehicle: other) was 227 % of control and the T/C (dose: 90.0 mg/kg/injection, schedule: Q01DX001 (ip), vehicle: other) was 100 % of control.
`Cc1cc([N+](=O)[O-])ccc1NC(=O)Nc1cccc(F)c1`: the T/C is, setting by setting: under setting [1], 96 % of control; under setting [6], 90 % of control; under setting [7], 95 % of control; under setting [2], 94 % of control; under setting [8], 88 % of control; under setting [9], 95 % of control. Further, the T/C is 88 % of control under setting [3], 88 % of control under setting [10] and 95 % of control under setting [11].
Take `O=C(O)c1ccc(-c2ccccc2)cc1`: the T/C is 92 % of control (dose: 50.0 mg/kg/injection, schedule: Q01DX Z (ip), vehicle: carboxymethylcellulose (CMC)); 95 % of control under setting [1]; 93 % of control (dose: 100.0 mg/kg/injection, schedule: Q01DX Z (ip), vehicle: carboxymethylcellulose (CMC)); 104 % of control under setting [7]; 98 % of control under setting [2]; 97 % of control (dose: 200.0 mg/kg/injection, schedule: Q01DX Z (ip), vehicle: carboxymethylcellulose (CMC)). In addition, the T/C under setting [9] was 93 % of control and the T/C under setting [11] was 104 % of control.
As to `Cc1ccc([NH-])cc1.Cc1ccc([NH-])cc1.[Cl][Pt+2][Cl]`, the T/C was 101 % of control (dose: 6.25 mg/kg/injection, schedule: Q01DX009 (ip), vehicle: saline with Tween-80) and 95 % of control (dose: 12.5 mg/kg/injection, schedule: Q01DX009 (ip), vehicle: saline with Tween-80).
With `CCOC(CN=CC1CCC=CO1)OCC` (stereo unspecified), the T/C was 91 % of control under setting [12], 96 % of control under setting [13] and 95 % of control under setting [14].
With `CC(C)N(CCCCO)C(C)C`, where the note is “dose: 100.0 mg/kg/injection, schedule: Q01DX001 (ip), vehicle: carboxymethylcellulose (CMC)”, the T/C is 91 % of control.
Take `CC(=O)NC(CC(C)C)C(=O)O` (stereo unspecified): the T/C is, setting by setting: (dose: 25.0 mg/kg/injection, schedule: Q04DX002 (ip), vehicle: saline) 96 % of control; (dose: 50.0 mg/kg/injection, schedule: Q04DX002 (ip), vehicle: saline) 101 % of control; (dose: 100.0 mg/kg/injection, schedule: Q04DX002 (ip), vehicle: saline) 101 % of control; (dose: 200.0 mg/kg/injection, schedule: Q04DX002 (ip), vehicle: saline) 90 % of control; (dose: 400.0 mg/kg/injection, schedule: Q04DX002 (ip), vehicle: saline) 108 % of control.
Turning to `C=C(Br)COCC`, the T/C (dose: 25.0 mg/kg/injection, schedule: Q01DX009 (ip), vehicle: acetone) is 97 % of control.
As to `Nc1nc(Cl)[nH]c(=O)n1`, the T/C by setting is: (dose: 12.5 mg/kg/injection, schedule: Q01DX001 (ip), vehicle: Klucel (hydroxypropylcellulose) (HPC)) 105 % of control; (dose: 25.0 mg/kg/injection, schedule: Q01DX001 (ip), vehicle: Klucel (hydroxypropylcellulose) (HPC)) 97 % of control; (dose: 50.0 mg/kg/injection, schedule: Q01DX001 (ip), vehicle: Klucel (hydroxypropylcellulose) (HPC)) 100 % of control.
Turning to `COc1ccc(-n2c(=O)c(N=Nc3ccc(Cl)cc3)c(O)n(-c3ccc(C)cc3)c2=S)cc1`, the T/C (dose: 37.5 mg/kg/injection, schedule: Q01DX001 (ip), vehicle: Klucel (hydroxypropylcellulose) (HPC)) was 92 % of control; the T/C (dose: 75.0 mg/kg/injection, schedule: Q01DX001 (ip), vehicle: Klucel (hydroxypropylcellulose) (HPC)) is 92 % of control; the T/C (dose: 150.0 mg/kg/injection, schedule: Q01DX001 (ip), vehicle: Klucel (hydroxypropylcellulose) (HPC)) was 91 % of control.
For `CCCCCCCCCCCCCCCCNS(=O)(=O)c1ccc(S(=O)(=O)F)cc1`, the T/C is, setting by setting: under setting [12], 94 % of control; under setting [13], 94 % of control; under setting [14], 89 % of control.
`Cc1cccc(=O)n1Cc1ccccc1`: the T/C was 104 % of control (dose: 100.0 mg/kg/injection, schedule: Q01DX001 (ip), vehicle: saline); 97 % of control under setting [4]; 98 % of control (dose: 200.0 mg/kg/injection, schedule: Q01DX001 (ip), vehicle: saline); 91 % of control under setting [5]; 105 % of control (dose: 400.0 mg/kg/injection, schedule: Q01DX001 (ip), vehicle: saline); 88 % of control (dose: 400.0 mg/kg/injection, schedule: Q01DX009 (ip), vehicle: saline with Tween-80).
In the case of `NC(=O)c1cc(Cl)cc(Cl)c1N1CC[N+](CCCl)=N1`, the T/C (dose: 100.0 mg/kg/injection, schedule: Q01DX001 (ip), vehicle: saline with Tween-80) is 103 % of control.
In the case of `C1=C(c2ccccc2)CC2CCCC1N2Cc1ccccc1` (stereo unspecified), the T/C reads like this: (dose: 12.5 mg/kg/injection, schedule: Q04DX003 (ip), vehicle: Klucel (hydroxypropylcellulose) (HPC)) 102 % of control; (dose: 25.0 mg/kg/injection, schedule: Q04DX003 (ip), vehicle: Klucel (hydroxypropylcellulose) (HPC)) 102 % of control; (dose: 50.0 mg/kg/injection, schedule: Q04DX003 (ip), vehicle: Klucel (hydroxypropylcellulose) (HPC)) 94 % of control.
In the case of `N/N=C(/CC1C(=O)Nc2ccccc21)c1ccccc1` (stereo unspecified), the T/C is 94 % of control under setting [6], 108 % of control under setting [8] and 91 % of control under setting [10].
For the molecule `Cc1c(Cl)cccc1NC(=O)N1CCN(C)CC1`, the T/C is 98 % of control and 107 % of control under setting [1]; 106 % of control and 91 % of control under setting [6]; 109 % of control and 92 % of control under setting [2]; 101 % of control and 91 % of control under setting [8]; 110 % of control and 90 % of control under setting [10].

These data come from PubChem BioAssay AID248 (DTP/NCI, 2004).
